US20240199555A1, “APPLICATIONS OF BIASED LIGANDS OF THE SEROTONIN 5-HT7 RECEPTOR FOR THE TREATMENT OF PAIN, MULTIPLE SCLEROSIS AND THE CONTROL OF THERMOREGULATION” (Centre National de la Recherche Scientifique, priority 2021, published 2024)

Key:
[1] = test system: mice; experiment: Tail immersion test (50° C.); format: in vivo
Experimental: (A) Experimental protocol summary used. (B) Mice were subcutaneously injected with two different doses of the 5-HT7 receptor agonist Serodolin, 1 mg/kg or 5 mg/kg and 10 min later their tail extremity was immersed in water heated to 50 degrees. […] The effect of injections (Serodolin or E55888) was evaluated at TO, 30 min and 60 min corresponding to 10, 40 and 70 min after compound injections. […] Their tail extremity was immersed in water heated to 50 degrees at TO (E) or 30 min later (F) corresponding to 10 and 40 min after agonist injections. […] Statistical analysis was done using Tukey's multiple comparison test.
Tail immersion test. Nociception was assessed with the tail immersion test, 10 min and 40 min after E55888 (5 mg/kg) or Serodolin (5 mg/kg) tail subcutaneous injections, in the water heated to 50° C. Vehicle (20% DMSO, 5% Tween 80 diluted in PBS solution) was used as a control group. These different groups were intraperitoneally injected (+) or not (−) with the 5-HT7R antagonist SB269960 (5 mg/kg) 10 min before the ligand injection. The tail withdrawal latency (s) was measured for each animal.

[2] = test system: HEK-293 mock cells; experiment: Control in mock-transfected HEK-293 cells (cAMP, ERK phosphorylation); format: cell-based, human
Experimental: ERK phosphorylation was monitored by western blotting after treatment of cells with 10 μM of ligands at different times ranging from 2 to 60 minutes. […] The kinetics of ERK phosphorylation elicited by 5-CT, Serodolin and MOA-51 were very similar: activation was fast and transient, and reached a pick between 2 and 7 minutes after drug exposure. However, ERK phosphorylation-induced by Serodolin and MOA-51 was more protracted compared to 5-CT, the reference agonist.

[3] = test system: mice; experiment: CFA-induced mechanical hypersensitivity, Von Frey filament test; format: in vivo; conditions: 5 mg/kg, s.c.
Experimental: Mechanical hypersensitivity was evaluated after CFA intraplantar injection by using the Von Frey test. […] Mechanical hypersensitivity was performed 24 hrs later (pre-treatment) CFA intraplantar injection into the left hind paw (ipsilateral paw). […] The ligand effects (E55888 or Serodolin) were evaluated 30 min and 24 hrs after in the ipsilateral paw. Data are means±SEM of values obtained in 2 independent experiments (n=8 to 10 per group). ****p<0.0001 ***p<0.001 **p<0.01 *p<0.05. Statistical analysis was done using Kruskal Wallis test.
Von Frey filament test. Before inducing peripheral inflammation, each animal was tested on the left hind paw with Von Frey Filament to determine its basal sensibility level. Then, peripheral inflammation was induced by intraplantar injection of Complete Freund's Adjuvant (CFA-10 μL) (F5881, Sigma) in the left hind paw (ipsilateral paw) and mechanical allodynia was measure (pre-treatment). Mice were divided into two groups, one with E55888 (5 mg/kg) and the other with Serodolin (5 mg/kg) subcutaneous injections in the ipsilateral paw. Both in absence (−) or in presence (+) of the 5-HT7R antagonist SB269960 (5 mg/kg), intraperitoneally, 20 min before the agonist injections (8-10 mice per group).
The inventors wanted to evaluate the effect of Serodolin on mechanical hypersensitivity in comparison with E-55888 after CFA injection.

[4] = test system: mice; experiment: Acetic acid-induced writhing test; format: in vivo
Experimental: (§1) FIG. 9: Analgesic effect of Serodolin in the acetic acid-induced writhing test. In this test, nociception was induced by an intraperitoneally injection (ip) of 0.1 ml/10 g acid acetic solution (10 ml/kg) in peripheral origin. Serodolin at increasing dosage was administrated by oral (po), intravenous (iv) or subcutaneous (sc) route before acid acetic injection (upper panel). Positive control animals were pretreated morphine (3 mg/kg, sc) 10 minutes before acetic acid. Five minutes after i.p. injection of acetic acid the number of writhing was recorded for 10 minutes. Data mean±SEM of values obtained from a representative experiment (n=10 animals/group). ****p<0.0001 ***p<0.001 **p<0.01 *p<0.05 as compared with the control group (Vh).
as §1, with “16:” for “9:”, “MOA51” for “Serodolin”, “i.p.injection” for “i.p. injection”, “animals/group).” for “animals/group). ****p<0.0001 ***p<0.001”, “**p<0.01” for “**p<0.01 *p<0.05”
Writhing tests: Mice (25-35 g). Groups of mice (n=10) received by oral, subcutaneous or intravenous route Serodolin at different doses (0.1-10 mg/kg) one hour before intraperitoneally injection of 1% acetic acid in a volume of 10 ml/kg. Control group received vehicle (10 ml/kg, solution of 20% DMSO and 5% tween 80). The test was carried out 5 minutes later after acid acetic injection. The characteristic writhing responses have been observed individually and counted for 10 minutes.
Analgesic activity was first evaluated using the acetic acid abdominal constriction test (writhing test), a chemical model of visceral pain. We evaluated the dose-response effect of Serodolin following single oral, intravenous and subcutaneous administration of the compound one hour before injection of acetic acid.
Analgesic activity was evaluated using the acetic acid abdominal constriction test (writhing test), a chemical model of visceral pain. We evaluated the dose-response effect of MOA51 following single oral, intravenous and subcutaneous administration of the compound one hour before injection of acetic acid. MOA51 administered by the oral route induced statistically significant dose-dependent decreases in the number of writhings at and above the dose of 1 mg/kg. By the intravenous route, MOA51 induced dose-dependent decreases in the number of writhings at and above the dose of 0.1 mg/kg.

O=c1[nH]c2ccccc2n1CN1CCN(c2ccc(F)cc2)CC1 [Serodolin]
duration of effect ([1]; 5 mg/kg): > 70 min | tail-immersion latencies ([1]; 1 and 5 mg/kg, s.c.): significant dose-dependent increase in the tail-immersion latencies | anti-nociceptive effect in 5-HT7R KO mice ([1]; 5-HT7R KO mice, subcutaneous): did not exert any anti-nociceptive effect | onset of effect post administration ([1]; s.c.): ≤ 10 min | ERK phosphorylation in HEK-293 mock cells [2]: neither Serodolin, nor MOA-51 were able to induce ERK phosphorylation | CFA-induced mechanical hypersensitivity, 30 minutes after administration ([3]; 30 minutes): Significantly decreased paw withdrawals thresholds (anti-allodynia) | anti-allodynic effect 24 later ([3]; 24 hrs): still significant | inhibition of the writhing assay response ([4]; at the highest dosage): up to 87% | dose giving significant decrease in number of writhings, subcutaneous route ([4]; s.c., one hour before acetic acid): 0.1 mg/kg
